Laboratory results published in US9090599B2, “Heteroarylmethyl amides” (Hoffman-La Roche Inc., priority 2010, dated 2015).

Assays:
[1] = tested on: ABCA1 protein; assay: Detection of upregulation of ABCA1 protein in THP-1 macrophage cells (ApoA-I binding, high content imaging); format: cell-based; settings: 24 hrs with compound, AlexaFluor 647 ApoA-I binding, read-out: ABCA1 protein increasing efficacy EC50
Description: The ability of compounds of the invention to increase the level of ABCA1 protein is determined in replicate cultures of THP-1 macrophage cells in 96-well microplates. Cells are plated at an initial density of 100,000 cells/well in 100 μl medium and differentiated to adherent macrophages with the addition of PMA (100 nM) for 68 hrs in 10% fetal bovine serum, 3 μl/L of b-mercaptoethanol, RPMI-1640 medium. Then, cells are incubated with RPMI-1640 medium containing 1% FCS, 25 μg/ml acetylated LDL, for 24 hours at 37°. Following incubation with acetylated LDL, cells are washed twice with 50 μl PBS and incubated with 100 μl of RPMI-1640 medium containing the compound of interest solubilized in DMSO for an additional 24 hrs. The final DMSO concentration in presence of cells is maintained at 0.5%. ApoA-I binding assay using High Content Image Analysis is initiated by replacing with fresh medium, RPMI without Phenol Red, 0.2% BSA containing AlexaFluor®647 labeled ApoA-I for 2 h/37° C./5% CO2. Then, cells are fixed with 4% Formaldehyde in PBS (15 min, RT). Following Nuclei are stained with Hoechst solution (3 μM PBS) and Cytoplasm with Cell Mask Blue (2 μg/ml PBS), 15 min, RT. Finally the stained cells are fixed with a second round of formaldehyde treatment. Fixed stained cells are washed and kept in PBS at 4° C. and can be read immediately until one month after preparation.
The Alexa Fluor 647-labeled Apolipoprotein A-I (20 nM) was prepared as follows: Human recombinant Apolipoprotein A-I (ApoA-I) was exchanged to a buffer of 0.02 M NaHCO3 at pH 8.2 on an NAP desalting column (GE Healthcare) and brought to a concentration to 40 μM (1.13 mg/ml) by adjustment with the same buffer. The ApoA-I was fluorescently labeled by incubation with Alexa Fluor carboxylic acid succimidyl ester. (Alexa Fluor 647, Invitrogen A-20006) at a 2:1 molar ratio (Alexa to ApoA-I) for 1 h under shaking at RT. The remaining unconjugated label was removed by buffer exchange to 0.02M NaHCO3 at pH 8.2.
Imaging and data collection were performed on an OPERA confocal microplate imaging reader using a 20× water immersion objective and UV360 or 405 laser to identify the cell nuclei and a 635 laser to identify the fluorescent ApoA-I. Eight fields of view are captured per well. Image capture and analysis was performed with the Acapella software. Background fluorescence detected in control wells without ApoA-I was subtracted.
Using XLfit3 program (ID Business Solutions Ltd. UK), the model 205 for Dose Response One Site is used to calculate the EC50 values. […] Preferably, the compounds of the present invention have EC50 values in a range of 0.1 μM to 3 μM.

[2] = biological target: T1, human CB2 receptor (Homo sapiens, UniProt P34972); assay: CB2 receptor affinity, [3H]-CP-55,940 displacement, HEK cell membranes; format: binding; settings: 10 μM compound, radioligand [3H]-CP-55,940
T1 construct: expressed in transfected cells; host or cells: human embryonic kidney (HEK) cells, Semliki Forest Virus system, membrane preparations
T1 sequence (P34972 whole entry): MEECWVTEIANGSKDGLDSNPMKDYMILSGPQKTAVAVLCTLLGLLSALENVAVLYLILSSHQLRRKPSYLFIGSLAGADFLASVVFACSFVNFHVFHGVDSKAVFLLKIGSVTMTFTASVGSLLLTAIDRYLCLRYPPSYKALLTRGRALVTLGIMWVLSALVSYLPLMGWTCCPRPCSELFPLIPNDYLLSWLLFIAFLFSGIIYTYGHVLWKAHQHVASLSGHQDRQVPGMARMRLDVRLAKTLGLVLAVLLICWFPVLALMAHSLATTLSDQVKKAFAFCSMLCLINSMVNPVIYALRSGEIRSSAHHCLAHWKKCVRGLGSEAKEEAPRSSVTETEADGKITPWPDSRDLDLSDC
Outline: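 Membranes from HEK cells transiently expressing human CB2 (Semliki Forest Virus) incubated with [3H]-CP-55,940 ± compound at 10 μM. Bound ligand separated by glass-fibre filtration and counted by scintillation; reported as % inhibition at 10 μM.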

[3] = biological target: T2, human CB1 receptor (Homo sapiens, UniProt P21554); assay: CB1 receptor affinity, [3H]-CP-55,940 displacement, HEK cell membranes; format: binding; settings: 10 μM compound, radioligand [3H]-CP-55,940; read-out: CB1 receptor affinity [% inhibition @ 10 μM]
T2 construct: expressed in transfected cells; host or cells: human embryonic kidney (HEK) cells, Semliki Forest Virus system, membrane preparations
T2 sequence (P21554 whole entry): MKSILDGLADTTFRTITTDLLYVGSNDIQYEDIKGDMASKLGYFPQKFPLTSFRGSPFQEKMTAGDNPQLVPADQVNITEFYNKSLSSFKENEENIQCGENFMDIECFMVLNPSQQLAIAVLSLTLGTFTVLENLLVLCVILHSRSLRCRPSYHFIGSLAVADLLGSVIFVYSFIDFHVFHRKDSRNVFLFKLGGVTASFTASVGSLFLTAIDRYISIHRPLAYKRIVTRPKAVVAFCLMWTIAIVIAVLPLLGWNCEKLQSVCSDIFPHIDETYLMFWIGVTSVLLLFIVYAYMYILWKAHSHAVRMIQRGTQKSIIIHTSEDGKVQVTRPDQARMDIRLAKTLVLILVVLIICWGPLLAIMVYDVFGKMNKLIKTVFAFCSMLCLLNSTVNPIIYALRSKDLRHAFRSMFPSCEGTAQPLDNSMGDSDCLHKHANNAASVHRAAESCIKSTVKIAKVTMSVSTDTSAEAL
Outline: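 Membranes from HEK cells transiently expressing human CB1 (Semliki Forest Virus system) incubated with [3H]-CP-55,940 with or without test compound. Bound and free ligand separated by glass-fibre filtration and bound radioactivity counted by scintillation. Compounds tested at 10 μM, values reported as % inhibition of radioligand binding.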

| inhibition at 10 µM [2] [%] | inhibition at 10 µM [3] [%] | SMILES | EC50 [1] [nM] |
| --- | --- | --- | --- |
| -4 | 15 | Cc1ccc(-c2cc(C(=O)NCc3nc(C(F)(F)F)no3)cnc2OCC(F)(F)F)cc1Cl [Example 80, 5-(3-chloro-4-methylphenyl)-6-(2,2,2-trifluoroethoxy)-N-((3-(trifluoromethyl)-1,2,4-oxadiazol-5-yl)methyl)nicotinamide] | 3130 |
| 7 | 4 | O=C(NCc1nc(C(F)(F)F)no1)c1cnc(OCC(F)(F)F)c(-c2ccc(F)c(Cl)c2)c1 [Example 81, 5-(3-chloro-4-fluorophenyl)-6-(2,2,2-trifluoroethoxy)-N-((3-(trifluoromethyl)-1,2,4-oxadiazol-5-yl)methyl)nicotinamide] | 890 |
| 4 | 28 | O=C(NCc1nc(C(F)(F)F)no1)c1cnc(OCC(F)(F)F)c(-c2ccc(F)c(F)c2)c1 [Example 89, 5-(3,4-difluorophenyl)-6-(2,2,2-trifluoroethoxy)-N-((3-(trifluoromethyl)-1,2,4-oxadiazol-5-yl)methyl)nicotinamide] | 1960 |
| 9 | 20 | COc1cc(CNC(=O)c2cnc(OCC(F)(F)F)c(-c3ccc(F)c(F)c3)c2)on1 [Example 99, 5-(3,4-difluorophenyl)-N-((3-methoxyisoxazol-5-yl)methyl)-6-(2,2,2-trifluoroethoxy)nicotinamide] | 1250 |
| 8 | 15 | O=C(NCc1nc(C(F)(F)F)no1)c1cnc(OCC(F)(F)F)c(-c2ccc3nonc3c2)c1 [Example 100, 5-Benzo[1,2,5]oxadiazol-5-yl-6-(2,2,2-trifluoro-ethoxy)-N-(3-trifluoromethyl-[1,2,4]oxadiazol-5-yl-methyl)-nicotinamide] | 580 |

| SMILES | inhibition at 10 µM [2] [%] | inhibition at 10 µM [3] [%] | EC50 [1] [nM] |
| --- | --- | --- | --- |
| O=C(NCc1nc(C(F)(F)F)no1)c1cnc(OC2CCC2)c(-c2ccc(F)c(F)c2)c1 [Example 91, 6-cyclobutoxy-5-(3,4-difluorophenyl)-N-((3-(trifluoromethyl)-1,2,4-oxadiazol-5-yl)methyl)nicotinamide] | 12 | 23 | 620 |
| Cc1cc(-c2cc(C(=O)NCc3nc(C(F)(F)F)no3)cnc2OC2CCC2)ccc1Cl [Example 94, 5-(4-chloro-3-methylphenyl)-6-cyclobutoxy-N-((3-(trifluoromethyl)-1,2,4-oxadiazol-5-yl)methyl)nicotinamide] | 2 | 19 | 310 |
